This note sets out measurements from patent US20160271139A1, “METHOD FOR NON-TOXIC TREATMENT FOR DRUG WITHDRAWAL” (DEMERX, INC., priority 2013, published 2016).

Series [1] in a line: Plasma noribogaine glucuronide pharmacokinetics in healthy volunteers (Example 7). It is filed as in vivo. The following applies: human plasma; for AUC0-216 / AUC0-∞ / Cmax / Tmax / t1/2: mean.
The test system of series [2] is Sprague-Dawley rat. Kind of series: Single dose toxicity in rats. Type of series: in vivo. The following applies: male rats. On the procedure: The objective of this study was to determine the toxicity and toxicokinetic profile of noribogaine HCl following a single oral (gavage) administration in the Sprague-Dawley rat. A single dose of 100, 300 and 800 mg/kg (achieved with doses of 400 mg/kg 3 h+/−30 min apart because of the limitations of maximum dose formulation concentration). Five male rats/group were used. […] Hypoactivity, vocalization, chewing movements, changes in respiration/posture, salivation, stimuli sensitivity, tremors, twitches and penile erection occurred prior to death. […] The NOAEL was determined to be 100 mg/kg.

The subject of series [3] is Sprague-Dawley rats. Put plainly: Fourteen day repeat dose toxicity in rats. Type of series: in vivo, rat. On the procedure:
This study was conducted to evaluate the toxicity profile of noribogaine-HCl following oral (gavage) administration to the rat for 14 days following Table 2 below:
Male and female Sprague-Dawley rats, 10/sex/group, were administered 0, 25, 50 or 100 mg/kg noribogaine HCl daily by single oral gavage for 14 days. An additional 5 rats/sex/group in the 0 (control) and 100 mg/kg groups were retained for a 28 day recovery period during which no drug was administered. Six rats/sex/group (3 rats/sex controls) were similarly dosed and sampled on study days 1 and 14 for analysis of noribogaine-HCl concentrations in the blood.

The test system of series [4] is dogs. Put plainly: Fourteen day repeat dose toxicity in dogs. It is filed as in vivo, dog. The protocol:
The objective of this study was to determine the toxicity profile of noribogaine HCl given following oral (gavage) administration to dogs for 14 days according to the following Table 3 below:
Noribogaine HCl was administered to groups of 4 male and 4 female dogs by single oral gavage daily for 14 days at doses of 0, 0.5, 1.0 and 5.0 mg/kg/day. An additional group of 4 male and 4 female dogs received either the vehicle control or 5.0 mg/kg/day for 14 days and were held for an additional 28 days after cessation of dosing to assess recovery from any potential drug-induced changes. The study was conducted under GLP guidelines and included comprehensive examinations of clinical signs, body weight, clinical pathology parameters, ophthalmologic examinations. ECG recordings and analyses of plasma for bioanalytical measurement of drug levels at appropriate intervals during the study. At the termination of the dosing phase and at the termination of the recovery phase, all dogs were subjected to a complete post-mortem examination including gross examination of major organs and histologic examination of an extensive list of tissues. Additional sections of brain were obtained from cerebrum, cerebellus, brain stem and spinal cord and examined histologically to evaluate potential effects on brain histopathology. In addition, these sections were examined with immunohistochemical stains for GFAP for evidence of gliosis and Calbindin for a more comprehensive examination of cerebellar Purkinje cells.

Series [5] can be described thus: Human pharmacokinetic study, single oral dose, serum levels (Example 6). It is filed as in vivo. The following applies: fasting healthy volunteers, single oral tablet 3, 10, 30 or 60 mg. On the procedure:
In double blind studies, fasting healthy volunteers (6 per cohort) were treated once orally with a tablet of noribogaine HCl. In escalating cohorts, the volunteers received 3 mg, 10 mg, 30 mg or 60 mg noribogaine.

Where [6] appears, read: after single oral 30 mg noribogaine (n = 6).
The mark [7] stands for this setting: after single oral 60 mg noribogaine (n = 6).

Each structure is given as a SMILES string. Bounds are passed on as bounds.

The term NOAEL denotes the highest dose or exposure tested at which no adverse effect was seen.

In the case of `CC[C@H]1C[C@@H]2C[C@H]3c4[nH]c5ccc(OC6OC(C(=O)O)C(O)C(O)C6O)cc5c4CCN(C2)[C@@H]13` (some centres unmarked) [Noribogaine glucuronide, noribogaine glucuronide], in series [1] (30 mg and 60 mg dose groups), the Mean half-life was in the range of 21 to 23 h and the “Time of peak concentrations after noribogaine dosing” value fell in the range of 3 to 4 h. Also, the “Time by which detected in all subjects” value in series [1] (30 mg and 60 mg noribogaine dose groups) was ≤ 0.75 h. In series [1] (setting [6]), the AUC0-216 was found to be 25.7 ng·h/mL, the “AUC0-∞” value amounted to 25.8 ng·h/mL, the Cmax was 1.8 ng/mL and the Tmax was 3.0 h. Further, the t1/2 in series [1] (setting [6]) stood at 20.6 h. In series [1] (setting [7]), the AUC0-216 is 65.0 ng·h/mL, the “AUC0-∞” value came to 67.1 ng·h/mL, the Cmax is 4.1 ng/mL and the Tmax came out at 3.8 h. In addition, in series [1] (setting [7]), the t1/2 was 23.1 h. The “Proportion of noribogaine glucuronide Cmax and AUC relative to noribogaine” value in series [1] (both dose groups (30 mg, 60 mg)) is reported as 3-4%.
For the compound `CC[C@@H]1C[C@H]2CC3c4[nH]c5ccc(O)cc5c4CCN(C2)C31.Cl` [noribogaine HCl], the NOAEL in series [2] (single oral gavage) worked out at 100 mg/kg; in series [3] (rats, 14 days oral gavage, highest dose tested) it was 100 mg/kg; in series [4] (dogs, 14 days oral gavage, based on lacrimal gland changes at 5 mg/kg/day), 1 mg/kg/day. In addition, the Treatment related signs entry in series [2] (single oral gavage 100 mg/kg) is given as “did not show any treatment related signs”. In addition, in series [2] (single oral gavage 300 mg/kg), the “Rats with hypoactivity, vocalization, salivation, stimuli sensitivity, loss of limb function and lying on the cage floor persisting until Day 2” value is listed as 3/5. Further, the Mortality result in series [2] (single oral gavage 800 mg/kg (2 x 400 mg/kg 3 h apart), approximately 2-3 h after second dose) is listed as “Mortality occurred in all male rats”. Also, the “Effects on mortality, clinical signs, ophthalmoscopy, hematology, coagulation parameters, clinical chemistry, urinalysis, gross necropsy or histopathology” value in series [3] (rats, 25, 50 or 100 mg/kg daily oral gavage for 14 days) is listed as “no test article-related effects”. Moreover, in series [3] (rats, 14 days oral gavage), the “Brain sections stained for GFAP or Calbindin” value was “No treatment-related differences in the brain”. For the same compound, the Body weight change in series [3] (rats, females, high dose 100 mg/kg, 14 days) is listed as −2.6%; in series [3] (rats, males, high dose 100 mg/kg, 14 days), −5.5%. In series [3] (rats, males and females, high dose 100 mg/kg, 14 days), the Food consumption change is −4.7%. In series [3] (rats, mid- and high dose groups (50, 100 mg/kg), 14 days, not correlated with histopathologic changes, considered incidental), the Liver weight entry is reported as “Minor increases in liver weight”. For the same compound, the “Lacrimal gland change in recovery group” value in series [4] (dogs, 5 mg/kg/day 14 days, then 28 days off drug) is reported as “clear evidence of regeneration”. Further, the “Lacrimal gland changes (only target tissue)” value in series [4] (dogs, 5 mg/kg/day, 14 days) was “slight to moderate atrophy and degeneration of the acinar cells”. In addition, the “Adverse effect in clinical observations, body weights, clinical pathological parameters, ophthalmologic examinations, ECG recordings, or gross lesions at necropsy” value in series [4] (dogs, 0.5, 1.0 and 5.0 mg/kg/day oral gavage 14 days, dosing or recovery phase) is listed as “No evidence of adverse effect”. In series [4] (dogs, 14 days oral gavage), the “Drug-induced effect in any other tissue including brain (histopathology, immunohistochemistry)” value is listed as “No evidence of drug-induced effect”. For the same compound, the Adverse effects result in series [5] is “no clinically relevant adverse effects were observed”. Further, the “Linearity of pharmacokinetic parameters” value in series [5] was “All parameters were linear”.
